Our source for the Activity values is ChEMBL document CHEMBL5678818, “Discovery of potent SOS1 inhibitors that block RAS activation via disruption of the RAS-SOS1 interaction” (Proc Natl Acad Sci U S A, 2019).

Assay [1] has as its target T1, Cyclin-dependent kinase-like 5 (Homo sapiens) (UniProt O76039).
T1 sequence (whole entry): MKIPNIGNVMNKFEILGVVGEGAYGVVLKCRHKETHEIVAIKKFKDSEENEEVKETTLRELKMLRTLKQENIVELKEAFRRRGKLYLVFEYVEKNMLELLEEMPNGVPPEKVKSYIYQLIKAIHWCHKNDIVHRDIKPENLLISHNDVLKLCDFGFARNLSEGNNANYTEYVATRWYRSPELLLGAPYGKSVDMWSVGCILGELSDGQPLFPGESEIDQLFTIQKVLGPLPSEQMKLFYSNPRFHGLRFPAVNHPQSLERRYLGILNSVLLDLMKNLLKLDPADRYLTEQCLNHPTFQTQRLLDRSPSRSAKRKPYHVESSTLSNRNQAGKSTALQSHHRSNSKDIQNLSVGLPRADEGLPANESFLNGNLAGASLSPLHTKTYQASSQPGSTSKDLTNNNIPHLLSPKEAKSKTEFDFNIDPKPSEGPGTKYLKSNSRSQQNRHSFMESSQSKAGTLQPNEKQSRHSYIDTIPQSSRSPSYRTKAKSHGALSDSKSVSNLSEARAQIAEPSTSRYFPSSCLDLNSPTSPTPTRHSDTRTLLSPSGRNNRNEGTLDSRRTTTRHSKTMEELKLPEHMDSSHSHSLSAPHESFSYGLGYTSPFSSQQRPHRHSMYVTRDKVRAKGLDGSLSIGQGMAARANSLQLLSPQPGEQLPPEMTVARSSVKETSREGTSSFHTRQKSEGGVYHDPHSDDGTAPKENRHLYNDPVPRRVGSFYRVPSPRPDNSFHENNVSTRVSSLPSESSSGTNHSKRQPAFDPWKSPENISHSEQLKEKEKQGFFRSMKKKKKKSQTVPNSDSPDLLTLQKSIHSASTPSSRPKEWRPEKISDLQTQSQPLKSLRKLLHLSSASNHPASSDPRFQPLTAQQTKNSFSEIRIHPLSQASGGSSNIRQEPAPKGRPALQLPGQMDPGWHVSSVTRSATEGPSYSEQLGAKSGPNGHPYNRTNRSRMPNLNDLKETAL
Kind of assay: Inhibition of CDKL5 (unknown origin) assessed as residual activity at 100 nM by KINOMEscan analysis relative to control.

Assay [2] deals with Hepatocyte growth factor receptor (Homo sapiens), P08581 [M1250T]. Kind of assay: Inhibition of MET M1250T mutant (unknown origin) assessed as residual activity at 100 nM by KINOMEscan analysis relative to control.
The target of assay [3] is cAMP-dependent protein kinase catalytic subunit alpha (Homo sapiens) (UniProt P17612). Kind of assay: Inhibition of PKAC-alpha (unknown origin) assessed as residual activity at 100 nM by KINOMEscan analysis relative to control.
For assay [4], the target named is RAF proto-oncogene serine/threonine-protein kinase (Homo sapiens) (UniProt P04049). The assay can be described thus: Inhibition of RAF1 (unknown origin) assessed as residual activity at 100 nM by KINOMEscan analysis relative to control.
RAF proto-oncogene serine/threonine-protein kinase (Homo sapiens), sequence (P04049 whole entry): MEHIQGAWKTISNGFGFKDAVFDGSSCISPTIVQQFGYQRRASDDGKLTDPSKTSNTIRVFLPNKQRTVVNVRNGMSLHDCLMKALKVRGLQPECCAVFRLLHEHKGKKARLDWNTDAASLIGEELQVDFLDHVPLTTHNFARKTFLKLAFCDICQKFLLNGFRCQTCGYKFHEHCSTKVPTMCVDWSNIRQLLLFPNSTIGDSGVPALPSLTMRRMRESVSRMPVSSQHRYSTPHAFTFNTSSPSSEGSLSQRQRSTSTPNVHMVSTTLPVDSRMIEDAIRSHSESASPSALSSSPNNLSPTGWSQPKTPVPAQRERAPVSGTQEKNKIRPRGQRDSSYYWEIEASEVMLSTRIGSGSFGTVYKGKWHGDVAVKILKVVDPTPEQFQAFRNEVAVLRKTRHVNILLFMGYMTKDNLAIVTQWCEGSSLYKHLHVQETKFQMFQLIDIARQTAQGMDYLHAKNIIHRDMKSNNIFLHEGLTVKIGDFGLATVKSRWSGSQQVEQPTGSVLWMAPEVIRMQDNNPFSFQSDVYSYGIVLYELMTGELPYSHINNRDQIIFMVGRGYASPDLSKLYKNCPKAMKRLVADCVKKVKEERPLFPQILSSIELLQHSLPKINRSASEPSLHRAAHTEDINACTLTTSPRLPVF
Assay [5] concerns the target T2, Serine/threonine-protein kinase Sgk3 (Homo sapiens) (UniProt Q96BR1).
T2 sequence (whole entry): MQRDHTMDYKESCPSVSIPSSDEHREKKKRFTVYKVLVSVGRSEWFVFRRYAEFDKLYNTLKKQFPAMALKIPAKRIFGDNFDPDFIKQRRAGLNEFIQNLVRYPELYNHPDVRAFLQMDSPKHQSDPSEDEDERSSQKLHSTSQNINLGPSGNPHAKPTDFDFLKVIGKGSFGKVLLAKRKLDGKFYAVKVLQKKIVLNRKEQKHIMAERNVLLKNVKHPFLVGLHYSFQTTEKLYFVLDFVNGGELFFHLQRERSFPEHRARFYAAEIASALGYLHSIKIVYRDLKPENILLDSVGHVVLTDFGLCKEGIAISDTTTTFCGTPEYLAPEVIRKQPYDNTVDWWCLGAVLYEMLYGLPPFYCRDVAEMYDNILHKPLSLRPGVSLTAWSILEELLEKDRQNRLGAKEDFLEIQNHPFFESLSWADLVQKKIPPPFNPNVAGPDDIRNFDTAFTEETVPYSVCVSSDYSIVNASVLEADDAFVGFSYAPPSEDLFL
Kind of assay: Inhibition of SGK3 (unknown origin) assessed as residual activity at 100 nM by KINOMEscan analysis relative to control.

Assay [6] has as its target T3, Serine/threonine-protein kinase TAO2 (Homo sapiens) (UniProt Q9UL54).
T3 sequence (whole entry): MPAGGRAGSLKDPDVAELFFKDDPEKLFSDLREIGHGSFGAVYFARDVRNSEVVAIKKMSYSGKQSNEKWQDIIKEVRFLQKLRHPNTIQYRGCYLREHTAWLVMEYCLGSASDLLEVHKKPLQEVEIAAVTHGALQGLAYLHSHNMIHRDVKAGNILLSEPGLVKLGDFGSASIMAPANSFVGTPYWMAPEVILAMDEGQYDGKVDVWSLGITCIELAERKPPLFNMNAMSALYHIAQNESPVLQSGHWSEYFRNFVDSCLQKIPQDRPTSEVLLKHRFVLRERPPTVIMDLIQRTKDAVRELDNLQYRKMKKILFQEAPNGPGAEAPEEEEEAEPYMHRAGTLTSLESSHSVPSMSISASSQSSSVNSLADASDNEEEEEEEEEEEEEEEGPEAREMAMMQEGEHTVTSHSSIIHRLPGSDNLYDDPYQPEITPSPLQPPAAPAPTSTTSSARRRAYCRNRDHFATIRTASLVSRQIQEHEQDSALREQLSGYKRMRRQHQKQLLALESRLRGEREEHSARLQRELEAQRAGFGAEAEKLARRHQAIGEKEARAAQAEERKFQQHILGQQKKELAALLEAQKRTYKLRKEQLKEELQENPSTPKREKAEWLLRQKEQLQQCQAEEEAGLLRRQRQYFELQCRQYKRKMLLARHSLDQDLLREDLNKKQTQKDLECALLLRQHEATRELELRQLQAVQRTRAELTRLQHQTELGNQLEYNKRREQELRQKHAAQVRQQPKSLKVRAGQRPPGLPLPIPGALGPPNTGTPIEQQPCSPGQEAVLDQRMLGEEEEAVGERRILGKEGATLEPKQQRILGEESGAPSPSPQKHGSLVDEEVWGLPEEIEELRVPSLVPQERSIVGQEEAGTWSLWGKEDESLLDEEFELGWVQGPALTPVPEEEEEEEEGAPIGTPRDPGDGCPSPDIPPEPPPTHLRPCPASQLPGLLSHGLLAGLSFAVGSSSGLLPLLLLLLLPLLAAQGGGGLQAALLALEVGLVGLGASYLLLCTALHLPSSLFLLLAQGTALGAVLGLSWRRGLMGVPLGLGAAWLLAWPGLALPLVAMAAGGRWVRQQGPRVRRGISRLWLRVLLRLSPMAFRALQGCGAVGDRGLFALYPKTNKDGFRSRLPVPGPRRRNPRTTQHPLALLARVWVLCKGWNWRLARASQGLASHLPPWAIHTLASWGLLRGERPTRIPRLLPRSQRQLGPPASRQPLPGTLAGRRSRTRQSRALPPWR
Kind of assay: Inhibition of TAOK2 (unknown origin) assessed as residual activity at 100 nM by KINOMEscan analysis relative to control.

Take `COc1cc2ncnc(N[C@H](C)c3cccc4ccccc34)c2cc1OC`: the Activity in assay [1] turned out to be 96%; in assay [2] it was 95%; in assay [3], 80%; in assay [4], 85%; in assay [5], 100%; in assay [6] it was 94%.
